{"source": "patent US8629277B2", "about": "“Styrenyl 1,2,4-oxadiazole compounds” (Piramal Enterprises Limited, priority 2010, dated 2014)", "key": {"CRKL protein [1]": {"tested_on": "CRKL protein", "experiment": "Inhibition of phosphorylation of CRKL protein, Western blot, E255V cell line", "type": "cell-based", "conditions": "72 h, FIG. 5, FIG. 6B", "protocol": "(§1) Phospho-CRKL monitoring has been recognized as a prognostic marker in CML patients treated with first and second generation Bcr-Abl inhibitors (Haematologica, 2008, 93, 5, 765-769). The assay was carried out using Western blot analysis according to the reference, Analytical Biochemistry, 1981, 112, 2, 195-203, with certain modifications.\n(§2) Western blot analysis was performed to decipher the mechanism of action of compounds of the present invention. […] The cells were incubated in a humidified incubator for 2-4 h at 37° C. Subsequently, cells were treated with respective concentrations of the compounds. Cells were then incubated for 72 h. Following the incubation, cells were harvested, washed with ice-cold phosphate buffered saline (PBS) and lysed with cold Cell Lytic buffer (Sigma Aldrich) supplemented with complete protease inhibitor cocktail (Roche, Germany). The protein extracts were obtained after centrifugation at 14,000 rpm at 4° C. (30 min). Aliquots of the resulting extracts were analyzed for their protein content using Bradford Reagent (Sigma) as per the manufacturer's instructions. Equivalent protein samples (70 μg) were loaded on 10% Tris-glycine gels and resolved at 100 V for 2 h in a buffered solution (24.9 mM Tris base, 250 mM glycine, 0.1% SDS (sodium dodecyl sulfate)). […]"}, "CRKL protein [2]": {"tested_on": "CRKL protein", "experiment": "Inhibition of phosphorylation of CRKL protein, Western blot, Y253H cell line", "type": "cell-based", "conditions": "FIG. 6B", "protocol": "as §1, §2"}}}
{"smiles": "CCCc1noc(C=Cc2ccc(O)c(O)c2)n1", "note": "[Compound of Example 3, 4-[2-(3-Propyl-[1,2,4]oxadiazol-5-yl)-vinyl]-benzene-1,2-diol]", "values": [{"measurement": "phosphorylation of CRKL protein (Tyr-207)", "setting": "CRKL protein [1]", "value": "inhibit"}, {"measurement": "phospho-CRKL", "setting": "CRKL protein [2]", "value": "inhibit"}]}
